Measurements taken from ChEMBL document CHEMBL5154709, “Tetrazole derivatives bearing benzodiazepine moiety-synthesis and action mode against virulence of Candida albicans” (Eur J Med Chem, 2022).
≈ marks a conversion by molar mass, not a printed value.

Experiments:
[1] = test system: Candida albicans; assay: Antifungal activity against Candida albicans SC5314 assessed as inhibition of fungal growth at 4 ug/ml incubated for 18 hrs by M27-A3 based microdilution method relative to control; format: functional
[2] = test system: Candida albicans; assay: Antifungal activity against Candida albicans SC5314 assessed as inhibition of fungal growth at 16 ug/ml incubated for 18 hrs by M27-A3 based microdilution method relative to control; format: functional
[3] = test system: Candida albicans; assay: Antifungal activity against Candida albicans SC5314 assessed as inhibition of fungal growth at 16 ug/ml incubated for 48 hrs by M27-A3 based microdilution method relative to control; format: functional
[4] = test system: Candida albicans; assay: Antifungal activity against Candida albicans SC5314 assessed as inhibition of fungal growth at 8 ug/ml incubated for 18 hrs by M27-A3 based microdilution method relative to control; format: functional
[5] = test system: Candida albicans; assay: Antifungal activity against Candida albicans SC5314 assessed as inhibition of fungal growth at 8 ug/ml incubated for 48 hrs by M27-A3 based microdilution method relative to control; format: functional
[6] = test system: Candida albicans; assay: Antifungal activity against Candida albicans SC5314 assessed as inhibition of fungal growth at 4 ug/ml incubated for 48 hrs by M27-A3 based microdilution method relative to control; format: functional
[7] = test system: Candida albicans; assay: Antifungal activity against Candida albicans SC5314 assessed as inhibition of fungal growth at 2 ug/ml incubated for 18 hrs by M27-A3 based microdilution method relative to control; format: functional
[8] = test system: Candida albicans; assay: Antifungal activity against Candida albicans SC5314 assessed as inhibition of fungal growth at 2 ug/ml incubated for 48 hrs by M27-A3 based microdilution method relative to control; format: functional
[9] = test system: Candida albicans; assay: Antifungal activity against Candida albicans SC5314 assessed as inhibition of fungal growth at 1 ug/ml incubated for 18 hrs by M27-A3 based microdilution method relative to control; format: functional
[10] = test system: Candida albicans; assay: Antifungal activity against Candida albicans SC5314 assessed as inhibition of fungal growth at 1 ug/ml incubated for 48 hrs by M27-A3 based microdilution method relative to control; format: functional
[11] = test system: Candida albicans; assay: Antifungal activity against Candida albicans SC5314 assessed as inhibition of fungal growth at 0.5 ug/ml incubated for 18 hrs by M27-A3 based microdilution method relative to control; format: functional
[12] = test system: Candida albicans; assay: Antifungal activity against Candida albicans SC5314 assessed as inhibition of fungal growth at 0.5 ug/ml incubated for 48 hrs by M27-A3 based microdilution method relative to control; format: functional
[13] = test system: Candida albicans; assay: Antifungal activity against Candida albicans SC5314 assessed as inhibition of fungal growth at 0.25 ug/ml incubated for 18 hrs by M27-A3 based microdilution method relative to control; format: functional
[14] = test system: Candida albicans; assay: Antifungal activity against Candida albicans SC5314 assessed as inhibition of fungal growth at 0.25 ug/ml incubated for 48 hrs by M27-A3 based microdilution method relative to control; format: functional
[15] = test system: Candida albicans; assay: Antifungal activity against Candida albicans SC5314 assessed as inhibition of fungal growth at 0.125 ug/ml incubated for 18 hrs by M27-A3 based microdilution method relative to control; format: functional
[16] = test system: Candida albicans; assay: Antifungal activity against Candida albicans SC5314 assessed as inhibition of fungal growth at 0.125 ug/ml incubated for 48 hrs by M27-A3 based microdilution method relative to control; format: functional
[17] = test system: Candida albicans; assay: Antifungal activity against Candida albicans SC5314 assessed as inhibition of fungal growth at 0.0625 ug/ml incubated for 18 hrs by M27-A3 based microdilution method relative to control; format: functional
[18] = test system: Candida albicans; assay: Antifungal activity against Candida albicans SC5314 assessed as inhibition of fungal growth at 0.0625 ug/ml incubated for 48 hrs by M27-A3 based microdilution method relative to control; format: functional
[19] = test system: Candida albicans; assay: Antifungal activity against Candida albicans SC5314 assessed as inhibition of fungal growth at 0.03125 ug/ml incubated for 18 hrs by M27-A3 based microdilution method relative to control; format: functional
[20] = test system: Candida albicans; assay: Antifungal activity against Candida albicans SC5314 assessed as inhibition of fungal growth at 0.03125 ug/ml incubated for 48 hrs by M27-A3 based microdilution method relative to control; format: functional
[21] = Toxicity in Galleria mellonella larvae assessed as melanization of larvae at 0.23 ug/ml measured every 24 hrs upto 5 days relative to control; details: 120 h, at 0.23 µg/mL, time < 5 day
[22] = test system: Candida albicans; assay: Antifungal activity against Candida albicans assessed as inhibition of fungal growth measured after 48 hrs by M27-A3 based broth microdilution; format: functional
[23] = test system: Candida albicans; assay: Antifungal activity against Candida albicans assessed as inhibition of fungal growth measured after 48 hrs in presence of exogenous ergosterol by M27-A3 based broth microdilution; format: functional
[24] = Toxicity in Galleria mellonella larvae assessed as melanization of larvae at 0.05 ug/ml measured every 24 hrs upto 5 days relative to control; details: 120 h, at 0.05 µg/mL, time < 5 day

SMILES | inhibition at 4 µg/mL [1] [%] | inhibition at 16 µg/mL [2] [%] | inhibition at 16 µg/mL [3] [%] | inhibition at 8 µg/mL [4] [%] | inhibition at 8 µg/mL [5] [%] | inhibition at 4 µg/mL [6] [%] | inhibition at 2 µg/mL [7] [%] | inhibition at 2 µg/mL [8] [%] | inhibition at 1 µg/mL [9] [%] | inhibition at 1 µg/mL [10] [%] | inhibition at 0.5 µg/mL [11] [%] | inhibition at 0.5 µg/mL [12] [%] | inhibition at 0.25 µg/mL [13] [%] | inhibition at 0.25 µg/mL [14] [%] | inhibition at 0.125 µg/mL [15] [%] | inhibition at 0.125 µg/mL [16] [%] | inhibition at 0.0625 µg/mL [17] [%] | inhibition at 0.0625 µg/mL [18] [%] | inhibition at 0.03125 µg/mL [19] [%] | inhibition at 0.03125 µg/mL [20] [%] | further results
COc1ccc(-n2nnnc2SCCCCl)cc1 | 99.8 | 99.9 | 99.8 | 99.8 | 99.8 | 99.8 | 100 | 99.8 | 99.9 | 99.8 | 99.9 | 99.7 | 100 | 99.9 | 99.9 | 99.9 | 99.9 | 99.8 | 99.8 | 99.7 | 
CCC(C)n1ncn(-c2ccc(N3CCN(c4ccc(OCC5COC(Cn6cncn6)(c6ccc(Cl)cc6Cl)O5)cc4)CC3)cc2)c1=O (centres undefined) [ITRACONAZOLE] |  |  |  |  |  |  |  |  |  |  |  |  |  |  |  |  |  |  |  |  | Activity [21]: 13%; MIC [22]: 0.32 µg/mL (≈ 0.453 µM); MIC [23]: 0.5 µg/mL
O=C1CN=C(c2ccccc2Br)c2cc(F)ccc2N1 | 99.2 | 98.9 | 99.1 | 99.3 | 99.1 | 99.2 | 99 | 99.1 | 99 | 99.2 | 99.2 | 99.2 | 98.9 | 99.1 | 99.1 | 99.1 | 98.7 | 98.7 | 99.1 | 99.1 | 
COc1ccc(-n2nnnc2SCCCN2C(=O)CN=C(c3ccccc3Br)c3cc(F)ccc32)cc1 | 98.8 | 98.1 | 98.5 | 98.6 | 98.7 | 98.8 | 98.7 | 98.8 | 98.8 | 98.9 | 98.7 | 98.8 | 98.5 | 98.6 | 98.8 | 98.9 | 98.7 | 98.8 | 98.8 | 98.8 | 
O=C1CN=C(c2ccccc2Br)c2cc(F)ccc2N1CCCn1nnc(-c2ccccc2)n1 | 99.6 | 98.5 | 98.4 | 98.4 | 98.5 | 98.9 | 99.6 | 98.4 | 99.4 | 98.9 | 99.5 | 99.3 | 99.8 | 99 | 99.8 | 98.4 | 99.4 | 98.6 | 100 | 100 | 
O=C1CN=C(c2ccccc2Br)c2cc(F)ccc2N1CCCSc1nnnn1-c1ccccc1 | 99.9 | 99.8 | 99.8 | 99.9 | 99.8 | 99.8 | 99.8 | 99.7 | 99.8 | 99.7 | 99.9 | 99.8 | 99.8 | 99.7 | 99.9 | 99.8 | 99.7 | 99.7 | 100 | 99.9 | 
Cc1ccc(-c2nnn(CCCN3C(=O)CN=C(c4ccccc4Br)c4cc(F)ccc43)n2)cc1 | 94.7 | 100 | 95.4 | 100 | 97.6 | 95.4 | 98.1 | 96.4 | 93.8 | 95 | 92.3 | 95.8 | 97.8 | 98.2 | 98.5 | 97.2 | 99.2 | 96.5 | 100 | 100 | 
ClCCCSc1nnnn1-c1ccccc1 | 98.8 | 98.7 | 98.9 | 98.7 | 98.8 | 98.9 | 98.5 | 98.6 | 98.5 | 98.6 | 98.3 | 98.4 | 98.8 | 98.9 | 98.6 | 98.8 | 98.6 | 98.8 | 98.8 | 98.9 | 
C[C@@H]1[C@H](O)[C@@H](C)/C=C/C=C/C=C/C=C/C=C/C=C/C=C/[C@H](O[C@@H]2O[C@H](C)[C@@H](O)[C@H](N)[C@@H]2O)C[C@@H]2O[C@](O)(C[C@@H](O)C[C@@H](O)[C@H](O)CC[C@@H](O)C[C@@H](O)CC(=O)O[C@H]1C)C[C@H](O)[C@H]2C(=O)O [AMPHOTERICIN B] | 100 | 100 | 100 | 100 | 100 | 100 | 100 | 100 | 100 | 100 | 100 | 100 | 100 | 100 | 100 | 100 | 100 | 100 | 100 | 100 | Activity [24]: 10%
